{
  "source": "patent EP1710301A1",
  "about": "“L-gulonolactone dehydrogenase of Mycobacterium tuberculosis” (priority 2005, dated 2006)",
  "key": {"[1]": {"molecular_target": "recombinant GST-tagged L-gulono-1,4-lactone dehydrogenase of Mycobacterium tuberculosis (Mycobacterium tuberculosis, UniProt P9WIT3)", "sequence (P9WIT3 whole entry)": "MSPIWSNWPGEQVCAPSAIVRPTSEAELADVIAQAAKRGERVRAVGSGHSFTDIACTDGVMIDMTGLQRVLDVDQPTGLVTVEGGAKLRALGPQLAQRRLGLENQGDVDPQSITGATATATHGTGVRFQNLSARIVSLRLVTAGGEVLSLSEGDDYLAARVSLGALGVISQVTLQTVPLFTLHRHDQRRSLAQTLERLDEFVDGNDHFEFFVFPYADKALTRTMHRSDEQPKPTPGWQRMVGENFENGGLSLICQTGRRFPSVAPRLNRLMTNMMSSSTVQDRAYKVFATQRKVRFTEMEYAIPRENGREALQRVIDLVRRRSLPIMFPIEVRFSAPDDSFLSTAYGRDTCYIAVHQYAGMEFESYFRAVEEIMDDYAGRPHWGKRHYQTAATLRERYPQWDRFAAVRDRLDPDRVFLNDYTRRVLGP", "details": "for Enzyme specific activity: substrate 50 mM"}, "[2]": {"molecular_target": "plant L-galactono-1,4-lactone dehydrogenase (Brassica oleracea, UniProt O47881)", "sequence (O47881 92-600)": "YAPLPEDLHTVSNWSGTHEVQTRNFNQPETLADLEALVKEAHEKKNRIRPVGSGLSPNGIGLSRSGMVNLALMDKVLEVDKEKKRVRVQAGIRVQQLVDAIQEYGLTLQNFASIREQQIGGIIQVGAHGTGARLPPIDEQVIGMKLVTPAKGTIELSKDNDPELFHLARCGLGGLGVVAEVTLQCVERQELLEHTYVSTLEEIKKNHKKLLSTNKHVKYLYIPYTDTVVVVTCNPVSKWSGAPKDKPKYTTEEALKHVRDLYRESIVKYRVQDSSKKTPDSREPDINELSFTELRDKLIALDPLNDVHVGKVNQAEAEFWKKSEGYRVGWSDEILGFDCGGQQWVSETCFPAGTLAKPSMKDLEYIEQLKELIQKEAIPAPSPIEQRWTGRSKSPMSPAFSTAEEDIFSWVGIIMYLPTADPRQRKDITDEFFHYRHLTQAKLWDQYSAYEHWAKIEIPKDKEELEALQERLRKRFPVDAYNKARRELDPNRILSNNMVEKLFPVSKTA", "details": "read-out: Km for the L-galactono-1,4-lactone substrate; value reported by Östergaard et al., 1997; cited from earlier work"}, "[3]": {"tested_on": "O=C1O[C@H]([C@@H](O)CO)[C@H](O)[C@@H]1O", "assay": "purified protein, by the assay type"}},
  "note": "Read-outs that look alike come from different tables or passages of the source.",
  "data": [
    {"compound": "[Ca+2].[Cl-].[Cl-]", "note": "[CaCl2]", "values": [
      {"measurement": "Relative activity", "setting": "[1]; effector 1 mM", "result": "91 % of control"}
    ]},
    {"compound": "[Cl][Cu][Cl]", "note": "[CuCl2]", "values": [
      {"measurement": "Relative activity", "setting": "[1]; effector 1 mM", "result": "0 % of control"},
      {"measurement": "effect on the enzyme activity (in words)", "setting": "[1]; effectors, EDTA 1 mM", "result": "Inhibition"}
    ]},
    {"compound": "O=C[C@@H](O)[C@H](O)[C@H](O)CO", "note": "[D-arabinose]", "values": [
      {"measurement": "Enzyme specific activity", "setting": "[1]", "result": 0, "unit": "mU/mg ofprotein"}
    ]},
    {"compound": "O=C[C@H](O)[C@@H](O)[C@H](O)[C@H](O)C(=O)O", "note": "[D-glucuronic acid]", "values": [
      {"measurement": "Enzyme specific activity", "setting": "[1]", "result": 0, "unit": "mU/mg ofprotein"}
    ]},
    {"compound": "O=C[C@H](O)[C@H]1OC(=O)[C@@H](O)[C@H]1O", "note": "[D-glucurono-3,6-lactone]", "values": [
      {"measurement": "Enzyme specific activity", "setting": "[1]", "result": 0, "unit": "mU/mg ofprotein"}
    ]},
    {"compound": "O=C[C@H](O)[C@@H](O)[C@H](O)CO", "note": "[D-xylose]", "values": [
      {"measurement": "Enzyme specific activity", "setting": "[1]", "result": 0, "unit": "mU/mg ofprotein"}
    ]},
    {"compound": "O=C(O)CN(CCN(CC(=O)O)CC(=O)O)CC(=O)O", "note": "[EDTA]", "values": [
      {"measurement": "Relative activity", "setting": "[1]", "result": "0 % of control"},
      {"measurement": "effect on the enzyme activity (in words)", "setting": "[1]", "result": "complete inhibition"}
    ]},
    {"compound": "Cc1cc2nc3c(=O)[nH]c(=O)nc-3n(C[C@H](O)[C@H](O)[C@H](O)COP(=O)(O)OP(=O)(O)OC[C@H]3O[C@@H](n4cnc5c(N)ncnc54)[C@H](O)[C@@H]3O)c2cc1C", "note": "[FAD]", "values": [
      {"measurement": "Relative activity", "setting": "[1]; effector 100 µM", "result": "94 % of control"},
      {"measurement": "effect on the enzyme activity (in words)", "setting": "[1]; effectors, EDTA 1 mM", "result": "not affected"}
    ]},
    {"compound": "O=C1O[C@H]([C@@H](O)CO)[C@@H](O)[C@@H]1O", "note": "[L-galactono-1,4-lactone]", "values": [
      {"measurement": "Enzyme specific activity", "setting": "[1]", "result": 0, "unit": "mU/mg ofprotein"},
      {"measurement": "activity towards substrate (in words)", "setting": "[1]; substrate specificity", "result": "no activity"},
      {"measurement": "Km", "setting": "[2]", "result": 3.3, "unit": "mM"}
    ]},
    {"compound": "O=C1O[C@H]([C@@H](O)CO)[C@H](O)[C@@H]1O", "note": "[L-gulono-1,4-lactone]", "values": [
      {"measurement": "Enzyme specific activity", "setting": "[1]", "result": 66.7, "unit": "mU/mg ofprotein"}
    ]},
    {"compound": "[Cl-].[Cl-].[Mg+2]", "note": "[MgCl2]", "values": [
      {"measurement": "Relative activity", "setting": "[1]; effector 1 mM", "result": "98 % of control"}
    ]},
    {"compound": "[Cl][Mn][Cl]", "note": "[MnCl2]", "values": [
      {"measurement": "Relative activity", "setting": "[1]; effector 1 mM", "result": "79 % of control"}
    ]},
    {"compound": "CCN1C(=O)C=CC1=O", "note": "[N-ethylmaleimide]", "values": [
      {"measurement": "Relative activity", "setting": "[1]; effector 1 mM", "result": "0 % of control"},
      {"measurement": "effect on the enzyme activity (in words)", "setting": "[1]; effectors, EDTA 1 mM", "result": "Inhibition"}
    ]},
    {"compound": "[Cl-].[Cl-].[Zn+2]", "note": "[ZnCl2]", "values": [
      {"measurement": "Relative activity", "setting": "[1]; effector 1 mM", "result": "0 % of control"},
      {"measurement": "effect on the enzyme activity (in words)", "setting": "[1]; effectors, EDTA 1 mM", "result": "Inhibition"}
    ]},
    {"compound": "recombinant GST-tagged L-gulono-1,4-lactone dehydrogenase of Mycobacterium tuberculosis (Mycobacterium tuberculosis H37Rv)", "values": [
      {"measurement": "Km", "setting": "[3]", "result": 5, "unit": "mM mM"},
      {"measurement": "Vmax", "setting": "[3]", "result": "2.44µmol·h^-1mg^-1 µmol·h^-1mg^-1"},
      {"measurement": "kcat", "setting": "[3]", "result": 0.033, "unit": "s^-1 s^-1"},
      {"measurement": "kcat/Km", "setting": "[3]", "result": 0.0065, "unit": "s^-1·mM^-1 s^-1·mM^-1"}
    ]}
  ]
}
